Data from ChEMBL document CHEMBL5257081, “Discovery of novel PROTACs based on multi-targeted angiogenesis inhibitors” (Bioorg Med Chem Lett, 2023).
Calls of active or inactive are those of the source. The rule behind the calls is not given here.

Tests used:
[1] = Antiproliferative activity against human EA.hy 926 cells assessed as inhibition of cell growth; type: toxicity, cell-based
A549 = assay: Antiproliferative activity against human A549 cells assessed as inhibition of cell growth; type: functional, cell-based
MDA-MB-453 = assay: Antiproliferative activity against human MDA-MB-453 cells assessed as inhibition of cell growth; type: functional, cell-based
HEK293 = assay: Cytotoxicity against human HEK293 cells assessed as inhibition of cell growth; type: toxicity, cell-based
[2] = biological target: T1, von Hippel-Lindau disease tumor suppressor/Vascular endothelial growth factor receptor 2 (Homo sapiens, UniProt P35968+P40337); assay: Protac activity at VHL E3 ubiquitin ligase/VEGFR-2 in human EA.hy 926 cells assessed as degradation of VEGFR-2 protein at 10 to 60 uM incubated for 48 hrs by western blot assay; type: cell-based; settings: dose 10-60 µM
Target sequence in this assay (P35968 20-1356 limits assumed): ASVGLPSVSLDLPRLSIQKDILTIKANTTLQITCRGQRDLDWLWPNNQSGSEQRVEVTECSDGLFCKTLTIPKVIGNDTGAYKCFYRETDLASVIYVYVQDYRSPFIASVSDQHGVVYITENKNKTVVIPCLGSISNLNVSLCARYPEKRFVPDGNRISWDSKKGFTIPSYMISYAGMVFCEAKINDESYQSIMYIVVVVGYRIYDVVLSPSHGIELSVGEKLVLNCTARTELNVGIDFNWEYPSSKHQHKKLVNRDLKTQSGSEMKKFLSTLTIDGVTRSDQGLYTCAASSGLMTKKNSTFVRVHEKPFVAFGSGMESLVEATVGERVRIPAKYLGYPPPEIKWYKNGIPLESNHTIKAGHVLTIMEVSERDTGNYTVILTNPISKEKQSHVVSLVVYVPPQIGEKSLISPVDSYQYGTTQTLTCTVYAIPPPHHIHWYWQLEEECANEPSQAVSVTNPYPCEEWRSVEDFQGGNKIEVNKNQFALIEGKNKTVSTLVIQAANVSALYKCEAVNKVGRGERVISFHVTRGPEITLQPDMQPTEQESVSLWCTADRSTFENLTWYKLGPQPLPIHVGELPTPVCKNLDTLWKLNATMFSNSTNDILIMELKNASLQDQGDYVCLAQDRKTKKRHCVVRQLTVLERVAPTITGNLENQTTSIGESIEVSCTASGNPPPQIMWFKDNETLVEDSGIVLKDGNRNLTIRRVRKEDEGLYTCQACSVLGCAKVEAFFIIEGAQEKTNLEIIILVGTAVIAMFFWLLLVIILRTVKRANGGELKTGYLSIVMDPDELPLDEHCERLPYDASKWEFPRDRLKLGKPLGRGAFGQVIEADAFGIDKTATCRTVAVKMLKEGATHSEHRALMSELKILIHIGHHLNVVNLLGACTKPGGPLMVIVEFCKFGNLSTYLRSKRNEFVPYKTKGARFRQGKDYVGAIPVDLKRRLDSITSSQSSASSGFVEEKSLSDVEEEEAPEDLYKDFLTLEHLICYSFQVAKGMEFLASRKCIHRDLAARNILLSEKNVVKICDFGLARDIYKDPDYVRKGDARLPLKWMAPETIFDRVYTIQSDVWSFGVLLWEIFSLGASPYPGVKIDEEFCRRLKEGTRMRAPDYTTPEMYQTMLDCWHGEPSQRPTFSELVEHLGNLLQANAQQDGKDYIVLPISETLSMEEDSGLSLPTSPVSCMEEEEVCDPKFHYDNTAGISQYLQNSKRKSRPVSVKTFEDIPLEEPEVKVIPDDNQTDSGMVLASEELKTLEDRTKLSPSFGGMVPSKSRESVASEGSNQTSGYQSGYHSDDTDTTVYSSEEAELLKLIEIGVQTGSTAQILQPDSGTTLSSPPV
Target sequence in this assay (P40337 whole entry partner): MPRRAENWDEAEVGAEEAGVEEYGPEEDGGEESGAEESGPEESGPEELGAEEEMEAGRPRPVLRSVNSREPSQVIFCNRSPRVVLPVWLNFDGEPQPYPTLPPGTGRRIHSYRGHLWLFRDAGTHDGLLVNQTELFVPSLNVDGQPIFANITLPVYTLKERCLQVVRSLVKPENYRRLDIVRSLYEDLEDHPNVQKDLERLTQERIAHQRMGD

[3] = biological target: T1, von Hippel-Lindau disease tumor suppressor/Vascular endothelial growth factor receptor 2; assay: Protac activity at VHL E3 ubiquitin ligase/VEGFR-2 (unknown origin) assessed as […] by ADP-Glo Kinase assay
Target sequence in this assay (P35968 whole entry): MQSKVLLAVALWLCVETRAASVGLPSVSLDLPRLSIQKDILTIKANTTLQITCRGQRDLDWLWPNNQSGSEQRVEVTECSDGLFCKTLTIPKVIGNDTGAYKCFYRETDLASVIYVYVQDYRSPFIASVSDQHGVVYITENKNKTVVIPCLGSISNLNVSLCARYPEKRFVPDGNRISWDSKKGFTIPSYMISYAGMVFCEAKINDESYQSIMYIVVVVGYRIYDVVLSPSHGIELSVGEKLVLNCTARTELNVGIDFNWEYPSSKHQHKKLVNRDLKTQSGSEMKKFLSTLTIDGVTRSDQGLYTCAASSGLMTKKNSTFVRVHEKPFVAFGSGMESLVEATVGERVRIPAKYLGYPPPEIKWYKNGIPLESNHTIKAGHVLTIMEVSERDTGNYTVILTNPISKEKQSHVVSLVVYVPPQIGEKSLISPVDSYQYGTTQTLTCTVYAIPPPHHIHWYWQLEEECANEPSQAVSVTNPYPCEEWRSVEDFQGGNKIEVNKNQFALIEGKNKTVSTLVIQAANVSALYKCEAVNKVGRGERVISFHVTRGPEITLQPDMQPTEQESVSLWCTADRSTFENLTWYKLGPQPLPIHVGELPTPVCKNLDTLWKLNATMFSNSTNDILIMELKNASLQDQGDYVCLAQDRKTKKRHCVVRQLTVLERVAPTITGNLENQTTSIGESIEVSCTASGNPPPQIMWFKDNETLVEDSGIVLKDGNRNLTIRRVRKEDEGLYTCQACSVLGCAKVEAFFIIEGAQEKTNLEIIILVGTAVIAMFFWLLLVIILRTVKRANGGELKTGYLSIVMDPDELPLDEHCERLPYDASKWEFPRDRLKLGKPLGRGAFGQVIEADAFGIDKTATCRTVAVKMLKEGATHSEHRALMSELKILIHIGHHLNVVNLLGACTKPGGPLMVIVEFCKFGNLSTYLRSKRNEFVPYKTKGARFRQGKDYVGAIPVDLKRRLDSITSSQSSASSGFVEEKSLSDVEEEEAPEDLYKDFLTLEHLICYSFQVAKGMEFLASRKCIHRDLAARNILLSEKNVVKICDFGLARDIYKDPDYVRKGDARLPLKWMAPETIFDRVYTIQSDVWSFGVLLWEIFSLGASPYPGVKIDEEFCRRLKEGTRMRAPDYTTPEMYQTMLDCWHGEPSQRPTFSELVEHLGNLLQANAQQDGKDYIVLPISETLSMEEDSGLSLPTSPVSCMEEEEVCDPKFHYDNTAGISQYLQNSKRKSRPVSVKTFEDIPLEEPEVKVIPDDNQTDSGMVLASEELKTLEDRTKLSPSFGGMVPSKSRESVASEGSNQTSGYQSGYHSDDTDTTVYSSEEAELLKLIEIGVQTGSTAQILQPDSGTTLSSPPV
Target sequence in this assay (P40337 whole entry): as the sequence (P40337 whole entry partner) above

EA.hy 926 [4] = assay: Induction of cell cycle arrest in human EA.hy 926 cells at 0.1 to 40 uM incubated for 48 hrs by propidium-iodide staining based flow cytometry analysis; type: functional; settings: dose 0.1-40 µM
[5] = biological target: T2, von Hippel-Lindau disease tumor suppressor/Serine/threonine-protein kinase B-raf (Homo sapiens) (UniProt P15056+P40337); assay: Protac activity at E3 ubiquitin ligase/BRAF in human EA.hy 926 cells assessed as degradation of BRAF protein at 10 to 60 uM incubated for 48 hrs by western blot assay; type: cell-based; settings: dose 10-60 µM
T2 sequence (P15056 whole entry, looked up): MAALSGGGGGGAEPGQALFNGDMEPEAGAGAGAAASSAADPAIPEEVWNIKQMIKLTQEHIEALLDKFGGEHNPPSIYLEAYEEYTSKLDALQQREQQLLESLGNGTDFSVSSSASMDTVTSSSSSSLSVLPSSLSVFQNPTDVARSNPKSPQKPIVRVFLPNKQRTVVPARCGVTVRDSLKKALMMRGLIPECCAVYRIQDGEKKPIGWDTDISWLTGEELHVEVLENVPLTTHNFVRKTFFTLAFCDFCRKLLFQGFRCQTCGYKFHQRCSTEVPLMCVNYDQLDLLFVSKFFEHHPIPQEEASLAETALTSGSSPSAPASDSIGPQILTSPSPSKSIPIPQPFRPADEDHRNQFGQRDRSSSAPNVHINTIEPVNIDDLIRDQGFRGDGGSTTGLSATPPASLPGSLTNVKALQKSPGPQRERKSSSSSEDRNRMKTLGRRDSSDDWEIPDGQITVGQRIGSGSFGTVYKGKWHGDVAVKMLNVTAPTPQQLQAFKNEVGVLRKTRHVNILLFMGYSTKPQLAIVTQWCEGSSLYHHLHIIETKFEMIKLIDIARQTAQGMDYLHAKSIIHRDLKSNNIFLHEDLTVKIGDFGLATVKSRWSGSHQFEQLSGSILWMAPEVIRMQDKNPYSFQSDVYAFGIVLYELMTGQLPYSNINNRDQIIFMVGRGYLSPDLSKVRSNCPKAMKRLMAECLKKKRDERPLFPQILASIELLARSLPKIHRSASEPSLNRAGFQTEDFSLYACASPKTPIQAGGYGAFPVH
T2 sequence (P40337 whole entry, looked up): as the sequence (P40337 whole entry partner) above

[6] = biological target: T2, von Hippel-Lindau disease tumor suppressor/Serine/threonine-protein kinase B-raf (Homo sapiens); assay: Protac activity at E3 ubiquitin ligase/BRAF in human EA.hy 926 cells assessed as degradation of BRAF protein at 40 uM incubated for 4 hrs by western blot assay; type: cell-based
EA.hy 926 [7] = assay: Induction of apoptosis in human EA.hy 926 cells at 0.1 to 40 uM incubated for 72 hrs by annexin-V/PI staining based flow cytometry analysis; type: functional, cell-based; settings: dose 0.1-40 µM
[8] = biological target: T2, von Hippel-Lindau disease tumor suppressor/Serine/threonine-protein kinase B-raf (Homo sapiens); assay: Protac activity at E3 ubiquitin ligase/BRAF in human EA.hy 926 cells assessed as degradation of BRAF protein at 40 uM incubated for 4 to 48 hrs by western blot assay; type: cell-based; settings: time 4-48 hrs, TDE = time-dependent effect
[9] = biological target: T2, von Hippel-Lindau disease tumor suppressor/Serine/threonine-protein kinase B-raf (Homo sapiens); assay: Protac activity at E3 ubiquitin ligase/BRAF in human EA.hy 926 cells assessed as degradation of BRAF protein at 40 uM incubated for 48 hrs by western blot assay; type: cell-based
[10] = biological target: T2, von Hippel-Lindau disease tumor suppressor/Serine/threonine-protein kinase B-raf (Homo sapiens); assay: Protac activity at E3 ubiquitin ligase/BRAF in human HepG2 cells assessed as degradation of BRAF protein; type: cell-based
[11] = biological target: T2, von Hippel-Lindau disease tumor suppressor/Serine/threonine-protein kinase B-raf (Homo sapiens); assay: Protac activity at E3 ubiquitin ligase/BRAF in human U87 cells assessed as degradation of BRAF protein; type: cell-based
[12] = biological target: T2, von Hippel-Lindau disease tumor suppressor/Serine/threonine-protein kinase B-raf (Homo sapiens); assay: Protac activity at E3 ubiquitin ligase/BRAF in human MDA-MB-231 cells assessed as degradation of BRAF protein; type: cell-based
[13] = biological target: T1, von Hippel-Lindau disease tumor suppressor/Vascular endothelial growth factor receptor 2; assay: Protac activity at VHL E3 ubiquitin ligase/VEGFR-2 in human EA.hy 926 cells assessed as degradation of VEGFR-2 protein at […]; type: cell-based
Target sequence in this assay (P35968 20-1356 limits assumed): as the sequence (P35968 20-1356 limits assumed) above
Target sequence in this assay (P40337 whole entry partner): as the sequence (P40337 whole entry partner) above

EA.hy 926 [14] = assay: Cytotoxicity against human EA.hy 926 cells; type: toxicity, cell-based
EA.hy 926 [15] = assay: Induction of apoptosis in human EA.hy 926 cells assessed as late apoptotic cells at 10 uM incubated for 72 hrs by annexin-V/PI staining based flow cytometry analysis (reference value: 3.07%); type: functional
EA.hy 926 [16] = assay: Induction of apoptosis in human EA.hy 926 cells assessed as early apoptotic cells at 40 uM incubated for 72 hrs by annexin-V/PI staining based flow cytometry analysis (reference value: 0.71%); type: functional
EA.hy 926 [17] = assay: Induction of apoptosis in human EA.hy 926 cells assessed as early apoptotic cells at 1 uM incubated for 72 hrs by annexin-V/PI staining based flow cytometry analysis (reference value: 0.71%); type: functional
EA.hy 926 [18] = assay: Induction of apoptosis in human EA.hy 926 cells assessed as late apoptotic cells at 1 uM incubated for 72 hrs by annexin-V/PI staining based flow cytometry analysis (reference value: 3.07%); type: functional
EA.hy 926 [19] = assay: Induction of apoptosis in human EA.hy 926 cells assessed as necrotic cells at 1 uM incubated for 72 hrs by annexin-V/PI staining based flow cytometry analysis (reference value: 2.34%); type: functional
EA.hy 926 [20] = assay: Induction of apoptosis in human EA.hy 926 cells assessed as late apoptotic cells at 20 uM incubated for 72 hrs by annexin-V/PI staining based flow cytometry analysis (reference value: 3.07%); type: functional
EA.hy 926 [21] = assay: Induction of apoptosis in human EA.hy 926 cells assessed as viable cells at 10 uM incubated for 72 hrs by annexin-V/PI staining based flow cytometry analysis (reference value: 93.8%); type: functional; settings: read-out: Activity
EA.hy 926 [22] = assay: Induction of apoptosis in human EA.hy 926 cells assessed as necrotic cells at 0.1 uM incubated for 72 hrs by annexin-V/PI staining based flow cytometry analysis (reference value: 2.34%); type: functional
EA.hy 926 [23] = assay: Induction of apoptosis in human EA.hy 926 cells assessed as early apoptotic cells at 20 uM incubated for 72 hrs by annexin-V/PI staining based flow cytometry analysis (reference value: 0.71%); type: functional
EA.hy 926 [24] = assay: Induction of apoptosis in human EA.hy 926 cells assessed as early apoptotic cells at 0.1 uM incubated for 72 hrs by annexin-V/PI staining based flow cytometry analysis (reference value: 0.71%); type: functional
EA.hy 926 [25] = assay: Induction of apoptosis in human EA.hy 926 cells assessed as viable cells at 0.1 uM incubated for 72 hrs by annexin-V/PI staining based flow cytometry analysis (reference value: 93.8%); type: functional; settings: read-out: Activity
EA.hy 926 [26] = assay: Induction of apoptosis in human EA.hy 926 cells assessed as necrotic cells at 10 uM incubated for 72 hrs by annexin-V/PI staining based flow cytometry analysis (reference value: 2.34%); type: functional
EA.hy 926 [27] = assay: Induction of apoptosis in human EA.hy 926 cells assessed as viable cells at 40 uM incubated for 72 hrs by annexin-V/PI staining based flow cytometry analysis (reference value: 93.8%); type: functional; settings: read-out: Activity
EA.hy 926 [28] = assay: Induction of apoptosis in human EA.hy 926 cells assessed as late apoptotic cells at 40 uM incubated for 72 hrs by annexin-V/PI staining based flow cytometry analysis (reference value: 3.07%); type: functional
EA.hy 926 [29] = assay: Induction of apoptosis in human EA.hy 926 cells assessed as necrotic cells at 40 uM incubated for 72 hrs by annexin-V/PI staining based flow cytometry analysis (reference value: 2.34%); type: functional
[30] = biological target: T2, von Hippel-Lindau disease tumor suppressor/Serine/threonine-protein kinase B-raf (Homo sapiens); assay: Protac activity at E3 ubiquitin ligase/BRAF in human EA.hy 926 cells assessed as degradation of BRAF protein at 30 uM preincubated with S5 for 2 hrs followed by compound addition and measured after 48 hrs by Western blot analysis; type: cell-based
EA.hy 926 [31] = assay: Induction of apoptosis in human EA.hy 926 cells assessed as late apoptotic cells at 0.1 uM incubated for 72 hrs by annexin-V/PI staining based flow cytometry analysis (reference value: 3.07%); type: functional
EA.hy 926 [32] = assay: Induction of apoptosis in human EA.hy 926 cells assessed as necrotic cells at 20 uM incubated for 72 hrs by annexin-V/PI staining based flow cytometry analysis (reference value: 2.34%); type: functional
EA.hy 926 [33] = assay: Induction of apoptosis in human EA.hy 926 cells assessed as viable cells at 1 uM incubated for 72 hrs by annexin-V/PI staining based flow cytometry analysis (reference value: 93.8%); type: functional; settings: read-out: Activity
[34] = biological target: T1, von Hippel-Lindau disease tumor suppressor/Vascular endothelial growth factor receptor 2; assay: Protac activity at VHL E3 ubiquitin ligase/VEGFR-2 in human EA.hy 926 cells assessed as degradation of VEGFR-2 protein preincubated with carfilzomib; type: cell-based
Target sequence in this assay (P35968 20-1356 limits assumed): as the sequence (P35968 20-1356 limits assumed) above
Target sequence in this assay (P40337 whole entry partner): as the sequence (P40337 whole entry partner) above

EA.hy 926 [35] = assay: Induction of apoptosis in human EA.hy 926 cells assessed as early apoptotic cells at 10 uM incubated for 72 hrs by annexin-V/PI staining based flow cytometry analysis (reference value: 0.71%); type: functional
[36] = biological target: T2, von Hippel-Lindau disease tumor suppressor/Serine/threonine-protein kinase B-raf (Homo sapiens); assay: Protac activity at E3 ubiquitin ligase/BRAF in human EA.hy 926 cells assessed as degradation of BRAF protein at 30 uM preincubated with VH032 for 2 hrs followed by compound addition and measured after 48 hrs by Western blot analysis; type: cell-based
EA.hy 926 [37] = assay: Induction of apoptosis in human EA.hy 926 cells assessed as viable cells at 20 uM incubated for 72 hrs by annexin-V/PI staining based flow cytometry analysis (reference value: 93.8%); type: functional; settings: read-out: Activity
EA.hy 926 [38] = assay: Induction of cell cycle arrest in human EA.hy 926 cells assessed as accumulation of cells at S pahse at 0.1 to 40 uM incubated for 48 hrs by propidium-iodide staining based flow cytometry analysis; type: functional; settings: dose 0.1-40 µM

Nc1n[nH]c2cccc(-c3cccc(NC(=O)Nc4cccc(Cl)c4)c3)c12
IC50 [1]: 7.33 µM
IC50 (A549): 15.8 µM
IC50 (MDA-MB-453): > 100 µM
Activity (HEK293): Non-Toxic

Cc1ncsc1-c1ccc(CNC(=O)[C@@H]2C[C@@H](O)CN2C(=O)[C@@H](NC(=O)CCCCCCCCCCC(=O)n2nc(N)c3c(-c4cccc(NC(=O)Nc5cccc(Cl)c5)c4)cccc32)C(C)(C)C)cc1
IC50 [1]: 21 µM
Activity [2]: Active
IC50 (A549): > 100 µM
IC50 [3]: 0.00707 µM
Activity (EA.hy 926 [4]): inactive
Activity [5]: Active
Activity [6]: Active
Activity (EA.hy 926 [7]): Active
IC50 (MDA-MB-453): > 100 µM
Activity [8]: Tde
Activity (HEK293): Non-Toxic
Activity [9]: Active

Cc1ncsc1-c1ccc(CNC(=O)[C@@H]2C[C@@H](O)CN2C(=O)[C@@H](NC(=O)CCCCCCCCCCCCCCC(=O)n2nc(N)c3c(-c4cccc(NC(=O)Nc5cccc(Cl)c5)c4)cccc32)C(C)(C)C)cc1
IC50 [1]: 28.5 µM
IC50 (A549): > 100 µM
IC50 [3]: 0.00212 µM
Activity [5]: Dose-Dependent Effect
Activity [10]: Active
Activity [11]: Active
IC50 (MDA-MB-453): > 100 µM
Activity [12]: inactive
Activity (HEK293): Non-Toxic

CC(C)C[C@H](NC(=O)[C@H](CCc1ccccc1)NC(=O)CN1CCOCC1)C(=O)N[C@@H](Cc1ccccc1)C(=O)N[C@@H](CC(C)C)C(=O)[C@@]1(C)CO1 [CARFILZOMIB]
Activity [13]: Active
Activity (EA.hy 926 [14]): Toxic

Cc1ncsc1-c1ccc(CNC(=O)[C@@H]2C[C@@H](O)CN2C(=O)[C@@H](NC(=O)CCCCCC(=O)n2nc(N)c3c(-c4cccc(NC(=O)Nc5cccc(Cl)c5)c4)cccc32)C(C)(C)C)cc1
IC50 [1]: 20 µM
Activity (EA.hy 926 [15]): 2.62%
Activity (EA.hy 926 [16]): 1.44%
Activity [2]: Active
Activity (EA.hy 926 [17]): 0.96%
Activity (EA.hy 926 [18]): 3.2%
Activity (EA.hy 926 [19]): 2.75%
Activity (EA.hy 926 [20]): 3.93%
viability at 10 µM (EA.hy 926 [21]): 91.4%
Activity (EA.hy 926 [22]): 6.32%
Activity (EA.hy 926 [23]): 0.86%
Activity (EA.hy 926 [24]): 0.57%
viability at 0.1 µM (EA.hy 926 [25]): 91.3%
Activity (EA.hy 926 [26]): 5.23%
IC50 (A549): > 100 µM
IC50 [3]: 0.0422 µM
Activity [5]: Active
viability at 40 µM (EA.hy 926 [27]): 92.2%
Activity (EA.hy 926 [28]): 2.62%
Activity (EA.hy 926 [7]): Active
Activity (EA.hy 926 [29]): 3.7%
Activity [30]: inactive
IC50 (MDA-MB-453): > 100 µM
Activity (EA.hy 926 [31]): 1.77%
Activity (EA.hy 926 [32]): 7.08%
Activity (HEK293): Non-Toxic
viability at 1 µM (EA.hy 926 [33]): 93.1%
Activity [34]: inactive
Activity (EA.hy 926 [35]): 0.77%
Activity [36]: inactive
viability at 20 µM (EA.hy 926 [37]): 88.1%
Activity (EA.hy 926 [38]): Active
